From patent US7550456B2, “Substituted aryl cycloalkanoyl derivatives and methods of their use” (Wyeth, priority 2003, dated 2009)
Where a name gives a salt, the structure may show the parent alone.

What follows are compounds tested against T1, human hNET (Homo sapiens, UniProt P23975) (assay: Norepinephrine (NE) uptake assay in MDCK-Net6 cells). Details: 1 μM test compound, [3H]NE uptake, read-out: % Inhibition @ 1 μM (hNET).
T1 construct: expressed in transfected cells; host or cells: MDCK-Net6 (MDCK cells, stably transfected)
Assay type: cell-based
Summary of the method: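 Radiolabelled NE uptake was counted by scintillation after NaOH lysis, with 1 µM desipramine defining non-specific uptake. EC50 came from a logistic dose-response fit.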

T1 sequence (P23975 whole entry): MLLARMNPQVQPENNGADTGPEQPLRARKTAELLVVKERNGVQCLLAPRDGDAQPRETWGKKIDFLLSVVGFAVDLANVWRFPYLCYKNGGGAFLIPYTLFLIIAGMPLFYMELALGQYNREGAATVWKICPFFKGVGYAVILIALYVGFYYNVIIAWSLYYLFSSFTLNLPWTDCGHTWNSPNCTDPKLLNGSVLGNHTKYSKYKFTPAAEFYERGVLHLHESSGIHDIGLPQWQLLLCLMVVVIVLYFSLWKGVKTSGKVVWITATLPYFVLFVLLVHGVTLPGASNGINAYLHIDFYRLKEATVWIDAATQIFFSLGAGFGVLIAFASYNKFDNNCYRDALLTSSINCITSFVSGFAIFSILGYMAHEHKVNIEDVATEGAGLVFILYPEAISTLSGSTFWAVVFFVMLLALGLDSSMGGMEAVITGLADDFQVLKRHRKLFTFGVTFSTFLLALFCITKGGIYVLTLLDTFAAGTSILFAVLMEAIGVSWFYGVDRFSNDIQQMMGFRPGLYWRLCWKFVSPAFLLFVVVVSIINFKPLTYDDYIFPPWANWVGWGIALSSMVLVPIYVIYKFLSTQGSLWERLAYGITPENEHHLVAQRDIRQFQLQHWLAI

| Compound | inhibition at 1 µM [%] |
| --- | --- |
| CN1CCN(CC(c2ccc(OCc3ccccc3)c(Cl)c2)C2(O)CCCCC2)CC1 (centres unmarked) [Example 293, 1-[1-[4-(benzyloxy)-3-chlorophenyl]-2-(4-methylpiperazin-1-yl)ethyl]cyclohexanol dihydrochloride] | 96 |
| CC#Cc1cccc(C(CN2CCNCC2)C2(O)CCCCC2)c1 (centres unmarked) [Example 300, 1-[2-piperazin-1-yl-1-(3-prop-1-ynylphenyl)ethyl]cyclohexanol dihydrochloride] | 38 |
| OC1(C(CN2CCNCC2)c2ccccc2-c2ccc(Cl)c(Cl)c2)CCCCC1 (centres unmarked) [Example 148, 1-[1-(3′,4′-dichloro-1,1′-biphenyl-2-yl)-2-piperazin-1-ylethyl]cyclohexanol dihydrochloride] | 32 |
| CCOc1ccc(C(CN2CCN(C)CC2)C2(O)CCCCC2)cc1OC(F)(F)F (centres unmarked) [Example 405, 1-[1-[4-ethoxy-3-(trifluoromethoxy)phenyl]-2-(4-methylpiperazin-1-yl)ethyl]cyclohexanol dihydrochloride] | 27 |
| C[C@@H](c1ccccc1)N1CCN(C[C@H](c2cccc(OC(F)(F)F)c2)C2(O)CCCCC2)CC1 [Example 363, 1-{(1S)-2-{4-[(1S)-1-phenylethyl]piperazin-1-yl}-1-[3-(trifluoromethoxy)phenyl]ethyl}cyclohexanol dihydrochloride] | 42 |
| C[C@@H]1CN(CC(c2ccc(OC(F)(F)F)cc2)C2(O)CCCCC2)C[C@H](C)N1 (stereo partly drawn) [Example 288, 1-{2-[cis-3,5-dimethylpiperazin-1-yl]-1-[4(trifluoromethoxy)phenyl]ethyl}cyclohexanol dihydrochloride] | 77.6 |
| OC1(C(CN2CCNCC2)c2ccc(OCc3ccccc3)c(Cl)c2)CCCCC1 (centres unmarked) [Example 292, 1-{1-[4-(benzyloxy)-3-chlorophenyl]-2-piperazin-1-ylethyl}cyclohexanol dihydrochloride] | 89 |
| N#Cc1cccc(C(CN2CCNCC2)C2(O)CCCCC2)c1 (centres unmarked) [Example 160, 1-[1-(3-cyanophenyl)-2-piperazin-1-ylethyl]cyclohexanol dihydrochloride] | 50 |
| CC(C)N1CCN(CC(c2cccc(OC(F)(F)F)c2)C2(O)CCCCC2)CC1 (centres unmarked) [Example 362, 1-{2-(4-isopropylpiperazin-1-yl)-1-[3-(trifluoromethoxy)phenyl]ethyl}cyclohexanol dihydrochloride] | 51 |
| CN1CCN(CC(c2ccc(-c3cccc([N+](=O)[O-])c3)cc2)C2(O)CCCCC2)CC1 (centres unmarked) [Example 178, 1-[2-(4-methylpiperazin-1-yl)-1-(3′-nitro-1,1′-biphenyl-4-yl)ethyl]cyclohexanol dihydrochloride] | 33 |
| OC1(C(CN2CCNCC2)c2ccc(-c3cc(Cl)cc(Cl)c3)cc2)CCC1 (centres unmarked) [Example 185, 1-[1-(3′,5′-dichloro-1,1′-biphenyl-4-yl)-2-piperazin-1-ylethyl]cyclobutanol dihydrochloride] | 27 |
| CN1CCN(CC(c2cc(Br)c(OCc3ccccc3)c(Br)c2)C2(O)CCCCC2)CC1 (centres unmarked) [Example 393, 1-[1-[4-(benzyloxy)-3,5-dibromophenyl]-2-(4-methylpiperazin-1-yl)ethyl]cyclohexanol dihydrochloride] | 59 |
| CN1CCN(CC(c2ccc(-c3ccccc3Cl)cc2)C2(O)CCCCC2)CC1 (centres unmarked) [Example 175, 1-[1-(2′-chloro-1,1′-biphenyl-4-yl)-2-(4-methylpiperazin-1-yl)ethyl]cyclohexanol dihydrochloride] | 20 |
| N#Cc1ccccc1-c1ccc(C(CN2CCNCC2)C2(O)CCCCC2)cc1 (centres unmarked) [Example 290, 4′-[1-(1-hydroxycyclohexyl)-2-piperazin-1-ylethyl]-1,1′-biphenyl-2-carbonitrile dihydrochloride] | 36 |
| OC1(C(CN2CCNCC2)c2ccc(CCc3ccccc3)cc2)CCCCC1 (centres unmarked) [Example 409, 1-{1-[4-(2-phenylethyl)phenyl]-2-piperazin-1-ylethyl}cyclohexanol dihydrochloride] | 62 |
| CN1CCN(CC(c2ccc(OCc3ccccc3)cc2)C2(O)CCC2)CC1 (centres unmarked) [Example 71, 1-[1-[4-(benzyloxy)phenyl]-2-(4-methylpiperazin-1-yl)ethyl]cyclobutanol dihydrochloride] | 25 |
| CCN1CCN(CC(c2ccc(OC(F)(F)F)cc2)C2(O)CCCCC2)CC1 (centres unmarked) [Example 287, 1-{2-(4-ethylpiperazin-1-yl)-1-[4-(trifluoromethoxy)phenyl]ethyl}cyclohexanol dihydrochloride] | 60.8 |

| Compound | inhibition at 1 µM [%] |
| --- | --- |
| OC1(C(CN2CCNCC2)c2cccc(-c3ccc(F)c(F)c3)c2)CCCCC1 (centres unmarked) [Example 147, 1-[1-(3′,4′-difluoro-1,1′-biphenyl-3-yl)-2-piperazin-1-ylethyl]cyclohexanol dihydrochloride] | 13 |
| CN1CCN(C[C@H](c2ccc(OCc3ccccc3)c(Cl)c2)C2(O)CCCCC2)CC1 [Example 326, 1-[(1S)-1-[4-(benzyloxy)-3-chlorophenyl]-2-(4-methylpiperazin-1-yl)ethyl]cyclohexanol dihydrochloride] | 99.7 |
| OC1(C(CN2CCNCC2)c2cc(Br)c(OCc3ccccc3)c(Br)c2)CCCCC1 (centres unmarked) [Example 392, 1-{1-[4-(benzyloxy)-3,5-dibromophenyl]-2-piperazin-1-ylethyl}cyclohexanol dihydrochloride] | 68 |
| Oc1ccc(C(CN2CCNCC2)C2(O)CCCCC2)cc1OC(F)(F)F (centres unmarked) [Example 400, 4-[1-(1-hydroxycyclohexyl)-2-piperazin-1-ylethyl]-2-(trifluoromethoxy)phenol dihydrochloride] | 38 |
| OC1(C(CN2CCNCC2)c2ccc(OCc3ccccc3)cc2)CCC1 (centres unmarked) [Example 70, 1-{1-[4-(benzyloxy)phenyl]-2-piperazin-1-ylethyl}cyclobutanol dihydrochloride] | 8 |
| OC1(C(CN2CCNCC2)c2ccc(OCc3ccc(C(F)(F)F)cc3)cc2)CCCCC1 (centres unmarked) [Example 436, 1-[2-piperazin-1-yl-1-(4-{[4-(trifluoromethyl)benzyl]oxy}phenyl)ethyl]cyclohexanol dihydrochloride] | 63 |
| COc1cc(C(CN2CCN(C)CC2)C2(O)CCCCC2)ccc1OCc1ccc(Br)cc1F (centres unmarked) [Example 447, 1-[1-{4-[(4-bromo-2-fluorobenzyl)oxy]-3-methoxyphenyl}-2-(4-methylpiperazin-1-yl)ethyl]cyclohexanol] | 97 |
| O=[N+]([O-])c1cccc(-c2ccc(C(CN3CCNCC3)C3(O)CCCCC3)cc2)c1 (centres unmarked) [Example 169, 1-[1-(3′-nitro-1,1′-biphenyl-4-yl)-2-piperazin-1-ylethyl]cyclohexanol dihydrochloride] | 69 |
| COc1cc(C(CN2CCNCC2)C2(O)CCCCC2)ccc1OCc1ccccc1 (centres unmarked) [Example 442, 1-{1-[4-(benzyloxy)-3-methoxyphenyl]-2-piperazin-1-ylethyl}cyclohexanol dihydrochloride] | 57 |
| OC1(C(CN2CCN(CC3CCCCC3)CC2)c2ccc(OC(F)(F)F)cc2)CCCCC1 (centres unmarked) [Example 286, 1-{2-[4-(cyclohexylmethyl)piperazin-1-yl]-1-[4-(trifluoromethoxy)phenyl]ethyl}cyclohexanol dihydrochloride] | 78.6 |
| OC1(C(CN2CCNCC2)c2ccc(-c3ccsc3)cc2)CCCCC1 (centres unmarked) [Example 174, 1-[2-piperazin-1-yl-1-(4-thien-3-ylphenyl)ethyl]cyclohexanol dihydrochloride] | 2 |
| OC1(C(CN2CCNCC2)c2ccc(OCCc3ccccc3)c(Cl)c2)CCCCC1 (centres unmarked) [Example 452, 1-{1-[3-chloro-4-(2-phenylethoxy)phenyl]-2-piperazin-1-ylethyl}cyclohexanol dihydrochloride] | 35 |
| CCOc1ccc(C(CN2CCNCC2)C2(O)CCCCC2)cc1OC(F)(F)F (centres unmarked) [Example 404, 1-{1-[4-ethoxy-3-(trifluoromethoxy)phenyl]-2-piperazin-1-ylethyl}cyclohexanol dihydrochloride] | 42 |
| CN1CCN(CC(c2ccc(OCc3ccccc3)c(Br)c2)C2(O)CCCCC2)CC1 (centres unmarked) [Example 265, 1-[1-[4-(benzyloxy)-3-bromophenyl]-2-(4-methylpiperazin-1-yl)ethyl]cyclohexanol dihydrochloride] | 44 |
| OC1(C(CN2CCNCC2)c2cccc(OCc3ccccc3)c2)CCCCC1 (centres unmarked) [Example 104, 1-{1-[3-(benzyloxy)phenyl]-2-piperazin-1-ylethyl}cyclohexanol dihydrochloride] | 3 |
| COc1cc(C(CN2CCN(C)CC2)C2(O)CCCCC2)ccc1OCc1ccc(C(F)(F)F)cc1 (centres unmarked) [Example 449, 1-[1-(3-methoxy-4-{[4-(trifluoromethyl)benzyl]oxy}phenyl)-2-(4-methylpiperazin-1-yl)ethyl]cyclohexanol dihydrochloride] | 88 |

Same assay, conditions: MDCK-Net6, read-out: % Inhibition @ 1 μM (hNET), 1 μM test compound, [3H]NE uptake

| Compound | inhibition at 1 µM [%] |
| --- | --- |
| CN1CCN(CC(c2cccc(OC(F)(F)F)c2)C2(O)CCCCC2)CC1 (centres unmarked) [Example 24, 1-{2-(4-methylpiperazin-1-yl)-1-[3-(trifluoromethoxy)phenyl]ethyl}cyclohexanol dihydrochloride] | 85 |
| CN1CCN(C[C@H](c2cccc(OC(F)(F)F)c2)C2(O)CCCCC2)CC1 [Example 245, 1-{(1S)-2-(4-methylpiperazin-1-yl)-1-[3-(trifluoromethoxy)phenyl]ethyl}cyclohexanol dihydrochloride] | 88 |

Same assay, conditions: [3H]NE uptake, test range 1 to 10,000 nM

| Compound | EC50 [nM] |
| --- | --- |
| CN1CCN(C[C@@H](c2ccc(OCc3ccccc3)cc2)C2(O)CCCCC2)CC1 [Example 412, 1-[(2R)-1-[4-(benzyloxy)phenyl]-2-(4-methylpiperazin-1-yl)ethyl]cyclohexanol dihydrochloride] | 138 |
| O=[N+]([O-])c1cccc(-c2ccc(C(CN3CCNCC3)C3(O)CCCCC3)cc2)c1 (centres unmarked) [Example 169, 1-[1-(3′-nitro-1,1′-biphenyl-4-yl)-2-piperazin-1-ylethyl]cyclohexanol dihydrochloride] | 850 |
| CN1CCN(C[C@H](c2ccc(OCc3ccccc3)cc2)C2(O)CCCCC2)CC1 [Example 411, 1-[(2S)-1-[4-(benzyloxy)phenyl]-2-(4-methylpiperazin-1-yl)ethyl]cyclohexanol dihydrochloride] | 483 |
